In US12240844B2 (Voronoi, Inc., priority 2019, dated 2025) one finds IC50 data, which are given here for 17 compounds.

The term IC50 denotes the concentration needed to halve the response being measured.

What all share (type): biochemical
In one test the target is T1, human GST-CLK1 (129-end) (Homo sapiens, UniProt P49759).
T1 construct: purified human GST-CLK1 (129-end, Signalchem) enzyme; GST; purchased Signalchem
Description: GST-CLK1 enzyme inhibition, ADP-Glo kinase assay. As to conditions: ATP 10 uM. In a few lines:
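ADP formation was read by ADP-Glo luminescence after 1 h at 25° C with 3 ng human GST-CLK1 (129-end), substrate and 10 uM ATP in Tris pH 7.4 buffer containing MgCl2, BSA and DTT. Inhibition relative to untreated solvent control gave IC50 (nM), run in triplicate.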
On the technique in general: ADP-Glo first removes unused ATP, then detects ADP through luciferase.

The next test concerns the target LRRK2 (G2019S) (Homo sapiens, UniProt Q5S007, G2019S). Kind of test: LRRK2 G2019S enzyme inhibition, ADP-Glo kinase assay. Set-up: purchased SignalChem L10-12GG. Put shortly: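 Activity read as ADP-Glo luminescence, normalized to untreated solvent control, with IC50 (nM) fitted over 12 final compound levels (top 50 μM). Reaction: 2 h, 25° C, human LRRK2 G2019S 16 ng, ATP 25 μM, substrate 0.2 μg, in Tris-HCl pH 7.4 with MgCl2, BSA and DTT.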

Test [1] has as its target T2, human GST-DYRK1A (full length) (Homo sapiens, UniProt Q13627).
T2 construct: purified human GST-DYRK1A (full length, Thermo scientifics) enzyme; GST; purchased Thermo scientifics
Description: GST-DYRK1A enzyme inhibition, ADP-Glo kinase assay. As to conditions: read-out: DYRK1 IC50. Put shortly: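 ADP-Glo luminescence quantified kinase activity after a 1 h, 25° C reaction of 10 ng full-length GST-tagged human DYRK1A, substrate and 10 uM ATP in Tris-HCl buffer pH 7.4 with MgCl2, BSA and DTT. Triplicate IC50 values (nM) calculated relative to untreated solvent control.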

The target in a further test is LRRK2 (Homo sapiens, UniProt Q5S007). Description: LRRK2 enzyme inhibition, ADP-Glo kinase assay. Set-up: purchased Invitrogen PR8604B. As to the method: In order to evaluate the inhibitory activity of the compounds according to the present invention on LRRK2, LRRK2 (G2019S), DYRK1, CLK1 and TTK kinases, the following experiment was performed.
LRRK2, sequence (Q5S007 970-2527 limits assumed): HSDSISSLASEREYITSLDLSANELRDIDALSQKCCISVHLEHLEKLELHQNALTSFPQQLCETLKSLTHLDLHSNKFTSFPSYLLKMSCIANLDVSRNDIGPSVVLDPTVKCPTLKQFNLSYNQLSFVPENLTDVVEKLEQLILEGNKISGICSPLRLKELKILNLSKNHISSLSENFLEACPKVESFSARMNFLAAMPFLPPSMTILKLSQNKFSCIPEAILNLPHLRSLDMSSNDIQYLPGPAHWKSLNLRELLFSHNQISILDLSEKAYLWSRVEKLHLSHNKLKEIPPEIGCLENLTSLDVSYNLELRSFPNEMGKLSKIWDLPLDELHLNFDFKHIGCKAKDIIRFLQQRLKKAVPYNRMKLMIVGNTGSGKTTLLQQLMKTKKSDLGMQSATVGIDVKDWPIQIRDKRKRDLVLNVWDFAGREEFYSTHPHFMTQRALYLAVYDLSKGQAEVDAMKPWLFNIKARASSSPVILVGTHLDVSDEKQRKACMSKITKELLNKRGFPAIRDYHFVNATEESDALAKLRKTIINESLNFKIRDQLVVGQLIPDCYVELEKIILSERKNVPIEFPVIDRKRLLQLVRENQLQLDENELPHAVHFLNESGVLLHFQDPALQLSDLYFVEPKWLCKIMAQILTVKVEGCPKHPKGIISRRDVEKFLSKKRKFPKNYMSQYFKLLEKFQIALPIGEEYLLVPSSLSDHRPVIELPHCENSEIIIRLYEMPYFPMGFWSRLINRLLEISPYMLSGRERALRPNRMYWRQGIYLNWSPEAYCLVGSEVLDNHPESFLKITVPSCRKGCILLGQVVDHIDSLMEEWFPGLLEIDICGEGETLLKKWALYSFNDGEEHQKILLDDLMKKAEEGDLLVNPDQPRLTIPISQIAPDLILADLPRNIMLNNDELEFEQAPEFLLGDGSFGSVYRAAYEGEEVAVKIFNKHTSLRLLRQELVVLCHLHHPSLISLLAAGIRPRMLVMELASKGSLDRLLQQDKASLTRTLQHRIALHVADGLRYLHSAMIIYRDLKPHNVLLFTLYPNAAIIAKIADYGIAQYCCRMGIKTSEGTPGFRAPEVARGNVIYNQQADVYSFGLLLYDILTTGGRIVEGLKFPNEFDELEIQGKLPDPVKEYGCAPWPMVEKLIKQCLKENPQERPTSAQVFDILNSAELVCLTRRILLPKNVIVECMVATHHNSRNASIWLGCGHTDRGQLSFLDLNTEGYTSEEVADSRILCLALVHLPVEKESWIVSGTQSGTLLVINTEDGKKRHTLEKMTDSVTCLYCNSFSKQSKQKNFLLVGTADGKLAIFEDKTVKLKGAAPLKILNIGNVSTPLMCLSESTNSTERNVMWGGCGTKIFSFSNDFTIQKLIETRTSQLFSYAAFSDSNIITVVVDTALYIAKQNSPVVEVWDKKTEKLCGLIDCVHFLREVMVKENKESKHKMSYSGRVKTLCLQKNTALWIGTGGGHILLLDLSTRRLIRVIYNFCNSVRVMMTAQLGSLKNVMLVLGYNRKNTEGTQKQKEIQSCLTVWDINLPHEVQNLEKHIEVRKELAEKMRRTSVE
Example compounds were reacted with the purified human LRRK2 (Invitrogen #PR8604B) enzyme to evaluate the enzyme inhibitory ability as follows. The reaction buffer was used as the composition of 40 mM Tris-HCl pH7.4, 20 mM MgCl2, 0.5 mg/ml BSA and 50 μM DTT, and the reaction of all test materials was performed on the reaction buffer. The compound was diluted with 10 mM DMSO stock in 12 steps by a serial dilution method, and the enzyme activity was measured at the final compound concentrations of 50, 10, 2, 0.4, 0.08, 0.016, 0.0032, 0.00064, 0.000128, 0.0000256, 0.00000512 and 0.000001024 μM. In the test, the human LRRK2 (25 ng) enzyme was reacted with the purified ATP (10 μM) and an enzyme substrate ([…]) at 25° C. for 2 hours, and then the enzyme activity was identified using the in vitro ADP-Glo™ kinase assay (promega). The enzyme activity reaction liquid, an ADP-Glo reaction liquid and an enzyme potency detection solution were reacted in a ratio of 2:2:1, and the degree of inhibition of enzyme activity was measured by Luminescence. The degree of inhibition of enzyme activity according to the treatment concentrations of the respective compounds was calculated based on the fluorescence of the enzyme activity of a solvent control group that was not treated with the compound, where the concentration of each compound to inhibit enzyme activity inhibition by 50% was determined as an IC50 (nM) value and obtained using Prism (Version 5.01, GraphPad) software.
In the table below, the following designations were used for the evaluation of enzyme inhibitory ability.

The structures appear in SMILES notation.

LRRK2 (G2019S), sequence (Q5S007 970-2527 G2019S limits assumed): as the sequence (Q5S007 970-2527 limits assumed) above, with G1050S counted along it
T1 sequence (P49759 129-484 limits assumed): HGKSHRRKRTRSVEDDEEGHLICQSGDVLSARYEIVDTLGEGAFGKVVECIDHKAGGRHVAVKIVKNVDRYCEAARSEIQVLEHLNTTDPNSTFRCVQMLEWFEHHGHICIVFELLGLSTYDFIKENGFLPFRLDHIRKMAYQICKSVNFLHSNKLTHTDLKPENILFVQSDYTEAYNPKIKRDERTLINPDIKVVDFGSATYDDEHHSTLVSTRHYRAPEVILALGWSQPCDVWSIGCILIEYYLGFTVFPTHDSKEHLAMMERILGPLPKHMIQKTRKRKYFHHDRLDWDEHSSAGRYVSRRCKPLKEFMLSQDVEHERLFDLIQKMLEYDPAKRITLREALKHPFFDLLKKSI

Consider `COc1cc(S(=O)(=O)N2CCOCC2)ccc1Nc1cc(NC2CCC2)c2c(Cl)c[nH]c2n1` [Example 69, 3-chloro-N^4-cyclobutyl-N^6-(2-methoxy-4-(morpholinosulfonyl)phenyl)-1H-pyrrolo[2,3-b]pyridine-4,6-diamine], for which the IC50 (at human GST-CLK1 (129-end); at LRRK2 (G2019S); in test [1]; at LRRK2) was 301 to 1000 nM in each case.

For `CCNc1cc(Nc2ccc(C(=O)N3CCOCC3)c3c2OCO3)nc2[nH]cc(C(F)(F)F)c12` [Example 236, (7-((4-(ethylamino)-3-(trifluoromethyl)-1H-pyrrolo[2,3-b]pyridin-6-yl)amino)benzo[d][1,3]dioxol-4-yl)(morpholino) methanone], the IC50 is under 100 nM against human GST-CLK1 (129-end), 101 to 300 nM against LRRK2 (G2019S), under 100 nM in test [1] and under 100 nM at LRRK2.

Take `COCCNc1cc(Nc2ccc(C(=O)N3CCC(N4CCOCC4)CC3)c3c2OCCO3)nc2[nH]cc(C(F)(F)F)c12` [Example 164, (8-((4-((2-methoxyethyl)amino)-3-(trifluoromethyl)-1H-pyrrolo[2,3-b]pyridin-6-yl)amino)-2,3-dihydrobenzo[b] [1,4]dioxin-5-yl)(4-morpholinopiperidin-1-yl)methanone]: the IC50 (on human GST-CLK1 (129-end); against LRRK2 (G2019S); in test [1]; at LRRK2) was under 100 nM each time.

As for `CCCNc1cc(Nc2ccc(S(C)(=O)=O)cc2OC)nc2[nH]cc(C(F)(F)F)c12` [Example 200, N^6-(2-methoxy-4-(methylsulfonyl)phenyl)-N^4-propyl-3-(trifluoromethyl)-1H-pyrrolo[2,3-b]pyridine-4,6-diamine], the IC50 (at human GST-CLK1 (129-end); against LRRK2 (G2019S); in test [1]; on LRRK2) was 301 to 1000 nM throughout.

Consider `COc1cc(S(C)(=O)=O)ccc1Nc1cc(NC2CCCC2)c2c(C#N)c[nH]c2n1` [Example 121, 4-(cyclopentylamino)-6-((2-methoxy-4-(methylsulfonyl)phenyl)amino)-1H-pyrrolo[2,3-b]pyridine-3-carbonitrile], for which the IC50 was 301 to 1000 nM on human GST-CLK1 (129-end), 301 to 1000 nM on LRRK2 (G2019S), 301 to 1000 nM in test [1] and under 100 nM against LRRK2.

For the compound `CCNc1cc(Nc2ccc(S(C)(=O)=O)cc2OC)nc2[nH]ccc12` [Example 26, N^4-ethyl-N^6-(2-methoxy-4-(methylsulfonyl)phenyl)-1H-pyrrolo[2,3-b]pyridine-4,6-diamine], the IC50 is 301 to 1000 nM at human GST-CLK1 (129-end), under 100 nM against LRRK2 (G2019S), 301 to 1000 nM in test [1] and under 100 nM against LRRK2.

Consider `CCNc1cc(Nc2ccc(P(C)(=O)O)cc2OC)nc2[nH]ccc12` [Example 32, (4-((4-(ethylamino)-1H-pyrrolo[2,3-b]pyridin-6-yl)amino)-3-methoxyphenyl) (methyl)phosphinic acid], for which the IC50 (against human GST-CLK1 (129-end); against LRRK2 (G2019S); in test [1]; on LRRK2) was 301 to 1000 nM each time.

`N#Cc1c[nH]c2nc(Nc3ccc(C(=O)N4CCC(N5CCOCC5)CC4)c4c3OCCO4)cc(NC3CC3)c12` [Example 116, 4-(cyclopropylamino)-6-((8-(4-morpholinopiperidine-1-carbonyl)-2,3-dihydrobenzo [b] [1,4]dioxin-5-yl)amino)-1H-pyrrolo[2,3-b]pyridine-3-carbonitrile]: the IC50 at human GST-CLK1 (129-end) was 101 to 300 nM; against LRRK2 (G2019S), under 100 nM; in test [1], 301 to 1000 nM; at LRRK2 it was under 100 nM.

Regarding `COCCNc1cc(Nc2ccc(S(C)(=O)=O)cc2OC)nc2[nH]cc(C#N)c12` [Example 126, 6-((2-methoxy-4-(methylsulfonyl)phenyl)amino)-4-((2-methoxyethyl)amino)-1H-pyrrolo[2,3-b]pyridine-3-carbonitrile], the IC50 on human GST-CLK1 (129-end) was 301 to 1000 nM; against LRRK2 (G2019S) it was under 100 nM; in test [1] it was 301 to 1000 nM; at LRRK2, under 100 nM.

As to `N#Cc1c[nH]c2nc(Nc3ccc(C(=O)N4CCOCC4)c4c3OCCO4)cc(NC3CC3)c12` [Example 111, 4-(cyclopropylamino)-6-((8-(morpholine-4-carbonyl)-2,3-dihydrobenzo[b] [1,4]dioxin-5-yl)amino)-1H-pyrrolo[2,3-b]pyridine-3-carbonitrile], the IC50 on human GST-CLK1 (129-end) is 101 to 300 nM; against LRRK2 (G2019S) it was under 100 nM; in test [1], 301 to 1000 nM; against LRRK2, under 100 nM.

Turning to `COc1cc(S(C)(=O)=O)ccc1Nc1cc(NCCS(C)(=O)=O)c2c(C#N)c[nH]c2n1` [Example 119, 6-((2-methoxy-4-(methylsulfonyl)phenyl)amino)-4-((2-(methylsulfonyl)ethyl)amino)-1H-pyrrolo[2,3-b]pyridine-3-carbonitrile], the IC50 is 301 to 1000 nM on human GST-CLK1 (129-end), under 100 nM against LRRK2 (G2019S), 301 to 1000 nM in test [1] and under 100 nM at LRRK2.

On to `CNc1cc(Nc2ccc(S(C)(=O)=O)cc2OC)nc2[nH]ccc12` [Example 25, N^6-(2-methoxy-4-(methylsulfonyl)phenyl)-N^4-methyl-1H-pyrrolo[2,3-b]pyridine-4,6-diamine], for which the IC50 is 301 to 1000 nM at human GST-CLK1 (129-end), under 100 nM at LRRK2 (G2019S), 301 to 1000 nM in test [1] and 101 to 300 nM against LRRK2.

Consider `CCNc1cc(Nc2ccc(S(=O)(=O)N3CCOCC3)cc2OC)nc2[nH]cc(Cl)c12` [Example 65, 3-chloro-N^4-ethyl-N^6-(2-methoxy-4-(morpholinosulfonyl)phenyl)-1H-pyrrolo[2,3-b]pyridine-4,6-diamine], for which the 50% inhibitory concentration (IC50) is 301 to 1000 nM at human GST-CLK1 (129-end), 301 to 1000 nM at LRRK2 (G2019S), 301 to 1000 nM in test [1] and 101 to 300 nM against LRRK2.

Consider `CCNc1cc(Nc2ccc(S(C)(=O)=O)cc2OC)nc2[nH]cc(C(F)(F)F)c12` [Example 180, N^4-ethyl-N^6-(2-methoxy-4-(methylsulfonyl)phenyl)-3-(trifluoromethyl)-1H-pyrrolo[2,3-b]pyridine-4,6-diamine], for which the half-maximal inhibitory concentration (IC50) (against human GST-CLK1 (129-end); against LRRK2 (G2019S); in test [1]; on LRRK2) was 301 to 1000 nM in each case.

`COCCNc1cc(Nc2ccc(C(=O)N3CCOCC3)c3c2OCCO3)nc2[nH]cc(Cl)c12` [Example 62, (8-((3-chloro-4-((2-methoxyethyl)amino)-1H-pyrrolo[2,3-b]pyridin-6-yl)amino)-2,3-dihydrobenzo[b] [1,4]dioxin-5-yl)(morpholino) methanone]: the IC50 was 301 to 1000 nM at human GST-CLK1 (129-end), under 100 nM at LRRK2 (G2019S), 301 to 1000 nM in test [1] and under 100 nM at LRRK2.

For `O=C(c1ccc(Nc2cc(NC3CC3)c3c(C(F)(F)F)c[nH]c3n2)c2c1OCCO2)N1CCOCC1` [Example 155, (8-((4-(cyclopropylamino)-3-(trifluoromethyl)-1H-pyrrolo[2,3-b]pyridin-6-yl)amino)-2,3-dihydrobenzo[b] [1,4]dioxin-5-yl)(morpholino) methanone 2,2,2-trifluoroacetate], the IC50 is under 100 nM against human GST-CLK1 (129-end), 101 to 300 nM at LRRK2 (G2019S), 301 to 1000 nM in test [1] and under 100 nM against LRRK2.

With `COc1cc(S(C)(=O)=O)ccc1Nc1cc(C2CC2)c2c(C#N)c[nH]c2n1` [Example 229, 4-cyclopropyl-6-((2-methoxy-4-(methylsulfonyl)phenyl)amino)-1H-pyrrolo[2,3-b]pyridine-3-carbonitrile], the IC50 lay within 301 to 1000 nM at human GST-CLK1 (129-end), 301 to 1000 nM against LRRK2 (G2019S), 301 to 1000 nM in test [1] and 101 to 300 nM against LRRK2.
